Assays:
[1] = system: SMARCA4 mutated cancer cells; conditions: Vangamudi et al. Cancer Res 2015; cited from earlier work
[2] = target: T1, SMARCA2 (Homo sapiens, UniProt P51531); test: SMARCA2 HiBiT degradation assay in HeLa cells; type: cell-based; conditions: 18 hours, highest concentration 10 μM
T1 construct: SMARCA2-HiBiT knock-in Hela monoclonal cell (CS302366); host or cells: HeLa monoclonal cells with heterozygous HiBiT knock-in at the endogenous SMARCA2 locus
Method in brief: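 HeLa cells carrying a heterozygous C-terminal HiBiT knock-in on SMARCA2 were seeded at 2500 cells/well. They were treated with 3-fold dilution series, top concentration 10 μM, for 18 h at 37 °C. Remaining SMARCA2-HiBiT was measured by Nano-Glo HiBiT lytic luminescence after 30-60 min at RT, followed by curve fitting.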

[3] = target: T2, SMARCA4 (Homo sapiens, UniProt P51532); test: SMARCA4 HiBiT degradation assay in HeLa cells; type: cell-based; conditions: 18 hours, highest concentration 10 μM
T2 construct: SMARCA4-HiBiT knock-in Hela monoclonal cell (CS3023226); host or cells: HeLa monoclonal cells with heterozygous HiBiT knock-in at the endogenous SMARCA4 locus
Method in brief: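 HeLa monoclonal cells with HiBiT knocked into SMARCA4 were seeded at 2500 cells/well, dosed with compound and incubated 18 hours at 37° C. HiBiT signal reported remaining SMARCA4 protein, and values came from curve fitting.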

T1 sequence (P51531 whole entry): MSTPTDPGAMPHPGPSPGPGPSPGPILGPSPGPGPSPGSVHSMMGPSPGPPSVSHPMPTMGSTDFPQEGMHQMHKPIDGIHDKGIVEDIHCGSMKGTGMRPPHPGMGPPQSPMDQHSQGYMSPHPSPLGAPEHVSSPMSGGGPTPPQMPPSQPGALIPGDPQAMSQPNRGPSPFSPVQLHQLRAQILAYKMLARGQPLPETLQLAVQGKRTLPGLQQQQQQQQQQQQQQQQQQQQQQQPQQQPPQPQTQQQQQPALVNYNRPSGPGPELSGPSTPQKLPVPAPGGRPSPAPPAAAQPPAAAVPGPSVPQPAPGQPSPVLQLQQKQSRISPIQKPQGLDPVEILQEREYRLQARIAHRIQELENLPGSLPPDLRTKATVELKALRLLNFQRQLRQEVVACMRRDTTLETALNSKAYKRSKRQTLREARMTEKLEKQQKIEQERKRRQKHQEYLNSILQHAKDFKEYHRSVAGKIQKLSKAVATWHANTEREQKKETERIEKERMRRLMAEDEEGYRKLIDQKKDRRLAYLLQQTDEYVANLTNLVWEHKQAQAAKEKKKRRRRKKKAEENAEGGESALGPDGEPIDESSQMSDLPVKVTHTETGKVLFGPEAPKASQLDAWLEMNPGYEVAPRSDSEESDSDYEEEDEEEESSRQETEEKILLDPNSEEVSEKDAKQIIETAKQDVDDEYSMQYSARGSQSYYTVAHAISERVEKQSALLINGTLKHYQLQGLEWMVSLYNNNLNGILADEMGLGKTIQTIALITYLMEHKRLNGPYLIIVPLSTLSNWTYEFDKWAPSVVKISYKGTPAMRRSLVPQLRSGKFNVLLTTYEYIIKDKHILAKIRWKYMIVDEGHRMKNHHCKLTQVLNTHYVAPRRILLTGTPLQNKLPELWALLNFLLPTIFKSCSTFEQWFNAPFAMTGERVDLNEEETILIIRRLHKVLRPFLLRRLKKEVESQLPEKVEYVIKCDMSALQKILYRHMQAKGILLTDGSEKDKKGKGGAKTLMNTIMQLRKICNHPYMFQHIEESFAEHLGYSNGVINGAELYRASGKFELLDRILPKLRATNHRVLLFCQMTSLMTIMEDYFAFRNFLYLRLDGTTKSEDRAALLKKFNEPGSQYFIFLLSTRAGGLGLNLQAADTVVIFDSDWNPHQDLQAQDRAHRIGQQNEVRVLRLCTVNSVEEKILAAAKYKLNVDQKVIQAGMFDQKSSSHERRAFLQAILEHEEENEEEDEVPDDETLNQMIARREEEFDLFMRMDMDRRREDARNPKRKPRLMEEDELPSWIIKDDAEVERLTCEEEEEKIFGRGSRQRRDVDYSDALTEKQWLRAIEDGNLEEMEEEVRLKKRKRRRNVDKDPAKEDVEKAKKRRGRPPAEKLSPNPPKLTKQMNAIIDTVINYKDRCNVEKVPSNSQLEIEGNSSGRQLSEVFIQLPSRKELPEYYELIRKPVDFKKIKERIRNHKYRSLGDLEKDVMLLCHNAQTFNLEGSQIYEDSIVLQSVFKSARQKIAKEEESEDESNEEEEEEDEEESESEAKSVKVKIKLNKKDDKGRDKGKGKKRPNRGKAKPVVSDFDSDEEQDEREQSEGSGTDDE
T2 sequence (P51532 whole entry): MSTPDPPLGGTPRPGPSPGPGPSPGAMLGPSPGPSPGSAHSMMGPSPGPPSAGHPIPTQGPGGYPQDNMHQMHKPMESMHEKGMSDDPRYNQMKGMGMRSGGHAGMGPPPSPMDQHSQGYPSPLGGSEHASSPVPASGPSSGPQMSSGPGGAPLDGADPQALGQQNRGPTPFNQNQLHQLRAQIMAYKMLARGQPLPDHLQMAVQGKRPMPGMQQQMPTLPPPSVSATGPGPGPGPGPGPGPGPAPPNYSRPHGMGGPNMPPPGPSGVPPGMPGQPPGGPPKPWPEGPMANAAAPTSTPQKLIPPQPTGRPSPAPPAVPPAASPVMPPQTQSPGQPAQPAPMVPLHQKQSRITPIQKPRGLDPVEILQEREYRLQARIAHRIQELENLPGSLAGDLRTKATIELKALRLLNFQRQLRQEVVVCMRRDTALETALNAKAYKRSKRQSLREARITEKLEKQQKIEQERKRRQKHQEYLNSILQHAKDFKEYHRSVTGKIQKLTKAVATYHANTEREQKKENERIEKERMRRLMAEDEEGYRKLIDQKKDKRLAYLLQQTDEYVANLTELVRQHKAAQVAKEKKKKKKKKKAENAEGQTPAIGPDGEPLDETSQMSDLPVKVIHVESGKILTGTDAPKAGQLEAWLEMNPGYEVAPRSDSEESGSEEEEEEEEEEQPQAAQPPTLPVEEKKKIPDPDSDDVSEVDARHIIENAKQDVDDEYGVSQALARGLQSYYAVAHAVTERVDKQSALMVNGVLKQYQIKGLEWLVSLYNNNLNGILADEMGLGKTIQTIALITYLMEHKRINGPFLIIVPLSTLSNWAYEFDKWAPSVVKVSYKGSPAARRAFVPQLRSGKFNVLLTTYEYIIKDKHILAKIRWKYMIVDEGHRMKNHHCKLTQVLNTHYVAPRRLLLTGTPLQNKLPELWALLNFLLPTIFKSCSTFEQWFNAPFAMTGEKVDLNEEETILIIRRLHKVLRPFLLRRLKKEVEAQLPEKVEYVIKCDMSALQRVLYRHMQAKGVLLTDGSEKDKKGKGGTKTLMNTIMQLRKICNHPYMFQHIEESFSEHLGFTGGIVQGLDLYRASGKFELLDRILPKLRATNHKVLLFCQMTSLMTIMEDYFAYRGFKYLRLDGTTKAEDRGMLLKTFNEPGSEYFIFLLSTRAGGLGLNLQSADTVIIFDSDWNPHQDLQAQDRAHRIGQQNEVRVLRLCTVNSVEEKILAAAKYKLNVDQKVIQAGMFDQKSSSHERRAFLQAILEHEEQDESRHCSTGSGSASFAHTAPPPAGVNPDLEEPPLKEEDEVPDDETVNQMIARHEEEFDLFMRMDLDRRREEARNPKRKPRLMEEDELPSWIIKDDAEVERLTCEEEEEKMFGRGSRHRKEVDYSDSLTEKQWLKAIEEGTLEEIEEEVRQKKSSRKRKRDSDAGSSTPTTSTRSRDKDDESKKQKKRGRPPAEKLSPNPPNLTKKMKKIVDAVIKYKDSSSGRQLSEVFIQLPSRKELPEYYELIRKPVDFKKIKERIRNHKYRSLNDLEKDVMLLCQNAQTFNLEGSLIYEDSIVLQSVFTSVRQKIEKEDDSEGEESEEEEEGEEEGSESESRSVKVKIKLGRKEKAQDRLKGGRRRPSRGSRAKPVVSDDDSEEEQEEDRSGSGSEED

Compound | effects on cell proliferation inhibition [1] | DC50 [2] [nM] | Dmax [2] [%] | DC50 [3] [nM] | Dmax [3] [%]
O=C(/C=C/N1C[C@H]2C[C@@H]1CN2c1ccccn1)c1ccccc1O [PFI-3] | none to minor effects |  |  |  | 
Cc1c(CN2CCN(c3ccc4c(c3)C(=O)N([C@H]3CCC(=O)NC3=O)C4)CC2)cnc(O[C@H]2CN3c4cc(-c5cccc(F)c5O)nnc4NC[C@@]3(C(F)F)C2)c1C [Example 86, (S)-3-(6-(4-((6-(((6aR,8R)-6a-(difluoromethyl)-2-(3-fluoro-2-hydroxyphenyl)-5,6,6a,7,8,9-hexahydropyrrolo[1′,2′:4,5]pyrazino[2,3-c]pyridazin-8-yl)oxy)-4,5-dimethylpyridin-3-yl)methyl)piperazin-1-yl)-1-oxoisoindolin-2-yl)piperidine-2,6-dione] |  | < 100 | > 75 | 100 to 1000 | < 50
